{
  "source": "BindingDB's records for doi:10.1016/j.ejmech.2017.08.029",
  "about": "(Emory University, 2017)",
  "data": [
    {"test": "Inhibition of human GLUT1 in human KMS11 cells over-expressing human GLUT1 assessed as as inhibition of receptor-mediated cell proliferation after 72 hrs by CellTiter-Glo assay", "units": {"IC50": "µM"}, "values": [
      {"smiles": "COc1ccc(C(=O)N(Cc2ccncc2)Cc2cccc(OCCc3ccc(Br)cc3)c2)cc1", "IC50": 6.5},
      {"smiles": "COc1ccc(C(=O)N(Cc2ccncc2)Cc2cccc(OCCc3cccc(C(F)(F)F)c3)c2)cc1", "IC50": 15.1},
      {"smiles": "COc1ccc(C(=O)N(Cc2ccncc2)Cc2cccc(OCCc3ccc(C)cc3)c2)cc1", "IC50": 12.7},
      {"smiles": "COc1ccc(C(=O)N(Cc2ccncc2)Cc2cccc(OCc3ccc(C(F)(F)F)cc3)c2)cc1", "IC50": 16.8},
      {"smiles": "COc1ccc(C(=O)N(Cc2ccncc2)Cc2cccc(OCc3ccc([N+](=O)[O-])cc3)c2)cc1", "IC50": 11.7},
      {"smiles": "COc1ccc(C(=O)N(Cc2ccncc2)Cc2cccc(OCC3CCCCC3)c2)cc1", "IC50": 16},
      {"smiles": "COc1ccc(C(=O)N(Cc2ccncc2)Cc2cccc(OCC3CCOCC3)c2)cc1", "IC50": 25.8},
      {"smiles": "COc1ccc(C(=O)N(Cc2ccncc2)Cc2cccc(OCCc3ccccc3)c2)cc1", "IC50": 21},
      {"smiles": "COc1ccc(C(=O)N(Cc2ccncc2)Cc2cccc(OCC(=O)c3ccc(Cl)cc3)c2)cc1", "IC50": 16.9},
      {"smiles": "COc1ccc(C(=O)N(Cc2ccncc2)Cc2cccc(OCc3cccc(OC)c3)c2)cc1", "IC50": 28.5},
      {"smiles": "COc1ccc(C(=O)N(Cc2ccncc2)Cc2cccc(OCC(=O)c3cccc(Br)c3)c2)cc1", "IC50": 21.4},
      {"smiles": "COc1ccc(C(=O)N(Cc2ccncc2)Cc2cccc(OCc3ccc(F)cc3)c2)cc1", "IC50": 28.6},
      {"smiles": "O=C(c1ccc(Cl)cc1)N(Cc1ccncc1)Cc1cccc(OCCc2ccc(F)cc2)c1", "IC50": 15.6},
      {"smiles": "COc1ccc(CC(=O)N(Cc2ccncc2)Cc2cccc(OCCc3ccc(F)cc3)c2)cc1", "IC50": 21.8}
    ]}
  ]
}
